Test results as given in patent US10377774B2 (JINAN UNIVERSITY, priority 2013, dated 2019).
Marks after values point to notes of the source that are not given here.

Columns and labels:
[1] = system: human non-small-cell lung cancer cell line A549; experiment: MTT cell growth inhibition, A549; format: cell-based; conditions: A549, MTT assay, 72 h; read-out: IC50, growth of tumor cell line
[2] = system: human colon cancer cell line LOVO; experiment: MTT cell growth inhibition, LOVO; format: cell-based; conditions: LOVO (FAPα positive), MTT assay, 72 h; read-out: IC50, growth of tumor cell line
Description: (§3) Experimental method: Cell lines (human non-small-cell lung cancer cell line A549, human colon cancer cell line LOVO, human nasopharyngeal carcinoma cell line CNE-2, human liver cancer cell line HepG2, human cervical carcinoma cell line Hela, human breast cancer cell lines MCF-7 and MDA-MB-231, human gastric carcinoma cell line NCI-N87, human prostatic cancer cell lines PC-3 and DU145, human leukemia cell line K562, human melanoma cell line A375, human neuroblastoma cell line SH-SY5H, human promyelocytic leukemia cell line HL-60, 5-FU-resistant human hepatocellular carcinoma cell line BEL-7402/5-Fu, doxorubicin-resistant hepatocellular carcinoma cell line HepG2/ADM, doxorubicin-resistant human breast cancer cell lines MCF-7/ADR) at logarithmic phase were resuspended in RPMI 1640 medium (containing 10% fetal bovine serum, 100 U/mL penicillin-streptomycin). Then, 100 μL of cells (cell concentration was 5×10^5/mL) were seeded into 96 wells plate. After 24 h incubation at 37° C. with 5% CO2, tested compounds were added (the control group without compound) for an additional 72 h incubation. After that, 30 μL of MTT [3-(4,5-Dimethylthiazol-2-yl)-2,5-diphenyltetrazolium bromide] solution (5 mg/mL) was added into each well and incubated for another 4 h at 37° C. and then the formazan crystals were solubilized with 100 μL DMSO. Finally, absorbance of each well was determined at 570 nm by a microplate reader (Thermo).
(§4) The concentration required to inhibit cell growth by 50% (IC50) was calculated from survival curves.

[3] = system: human nasopharyngeal carcinoma cell line CNE-2; experiment: MTT cell growth inhibition, CNE-2; format: cell-based; conditions: CNE-2, MTT assay, 72 h; read-out: IC50, growth of tumor cell line
Description: as §3, §4

[4] = system: human liver cancer cell line HepG2; experiment: MTT cell growth inhibition, HepG2; format: cell-based; conditions: HepG2, MTT assay, 72 h; read-out: IC50, growth of tumor cell line
Description: as §3, §4

[5] = system: human cervical carcinoma cell line Hela; experiment: MTT cell growth inhibition, Hela; format: cell-based; conditions: MTT assay, 72 h, read-out: IC50, growth of tumor cell line
[6] = system: human breast cancer cell line MCF-7; experiment: MTT cell growth inhibition, MCF-7; format: cell-based; conditions: MCF-7, MTT assay, 72 h; read-out: IC50, growth of tumor cell line
[7] = system: human breast cancer cell line MDA-MB-231; experiment: MTT cell growth inhibition, MDA-MB-231; format: cell-based; conditions: MDA-MB-231, MTT assay, 72 h; read-out: IC50, growth of tumor cell line
[8] = system: human gastric carcinoma cell line NCI-N87; experiment: MTT cell growth inhibition, NCI-N87; format: cell-based; conditions: NCI-N87, MTT assay, 72 h; read-out: IC50, growth of tumor cell line
Description: as §3, §4

[9] = system: human prostatic cancer cell line PC-3; experiment: MTT cell growth inhibition, PC-3; format: cell-based; conditions: PC-3, MTT assay, 72 h; read-out: IC50, growth of tumor cell line
Description: as §3, §4

[10] = system: human prostatic cancer cell line DU145; experiment: MTT cell growth inhibition, DU-145; format: cell-based; conditions: DU-145, MTT assay, 72 h; read-out: IC50, growth of tumor cell line
[11] = system: human leukemia cell line K562; experiment: MTT cell growth inhibition, K562; format: cell-based; conditions: K562, MTT assay, 72 h; read-out: IC50, growth of tumor cell line
Description: as §3, §4

[12] = system: human melanoma cell line A375; experiment: MTT cell growth inhibition, A375; format: cell-based; conditions: A375, MTT assay, 72 h; read-out: IC50, growth of tumor cell line
Description: as §3, §4

[13] = system: human neuroblastoma cell line SH-SY5H; experiment: MTT cell growth inhibition, SH-SY5H; format: cell-based; conditions: MTT assay, 72 h, read-out: IC50, growth of tumor cell line
Description: as §3, §4

[14] = system: human promyelocytic leukemia cell line HL-60; experiment: MTT cell growth inhibition, HL-60; format: cell-based; conditions: HL-60, MTT assay, 72 h; read-out: IC50, growth of tumor cell line
Description: as §3, §4

[15] = system: 5-FU-resistant human hepatocellular carcinoma cell line BEL-7402/5-Fu; experiment: MTT cell growth inhibition, BEL-7402/5-Fu; format: cell-based; conditions: MTT assay, 72 h, read-out: IC50, growth of tumor cell line
Description: as §3, §4

[16] = system: doxorubicin-resistant hepatocellular carcinoma cell line HepG2/ADM; experiment: MTT cell growth inhibition, HepG2/ADM; format: cell-based, human; conditions: MTT assay, 72 h, read-out: IC50, growth of tumor cell line
Description: as §3, §4

[17] = system: doxorubicin-resistant human breast cancer cell lines MCF-7/ADR; experiment: MTT cell growth inhibition, MCF-7/ADR; format: cell-based; conditions: MTT assay, 72 h, read-out: IC50, growth of tumor cell line
Description: as §3, §4

[18] = system: Kunming mice; experiment: Acute toxicity test; format: in vivo; conditions: injected intraperitoneally
Description: Experimental method: Kunming mice were purchased from Guangdong Medical Experimental Animal Center, weighing 18-22 g, then randomly divided into several groups with 10 mice in each group. Different concentrations of VLB and vinca alkaloid dipeptide derivatives were injected intraperitoneally. Finally, the median lethal dose (LD50) was calculated according to the surviving animals.
LD50 was measured using the following formula:
LD50 (mg/kg)=The median lethal dose/body weight

[19] = system: MDA-MB-231 xenografts; experiment: MDA-MB-231 xenografts in nude mice; format: in vivo, BALB/nu/nu mice; conditions: MDA-MB-231 xenograft nude mice; for Anti-tumor rate (%) / Body weight (g) Post-dose / Tumor weight: 1 mg/kg i.p. every two days, 8 administrations; for Body weight (g) Pre-dose: before dosing
Description: (§1) Experimental method: The MDA-MB-231 cells at logarithmic phase were digested and washed twice with PBS. Then, 100 μL cells (1×10^7) were inoculated subcutaneously on the backs of female BALB/nu/nu mice. After tumors grew to 70˜100 mm^3, the mice were divided randomly into saline group (control group), vinca alkaloids groups (VLB, CCRB, CCFN, CCXJ) and vinca alkaloid derivatives groups (JJ-CCJ, BX-CCJ, JJ-CCRB, BX-CCRB, JJ-CCFN, BX-CCFN, JJ-CCXJ and BX-CCXJ), with six mice per group. 1 mg/kg drugs were injected intraperitoneally every two days, meanwhile body weight and tumor sizes were measured. Experiment was ended after 8 times of drug administration, then tumor and organs were stripped. Tumor volumes were measured using the following formula: V=½(ab^2), whereas a refers to the longest diameter and b is the shortest diameter.

[20] = system: HepG2 xenografts; experiment: HepG2 xenografts in nude mice; format: in vivo; conditions: HepG2 xenograft nude mice; for Anti-tumor rate (%) / Body weight (g) Post-dose / Tumor weight: 1 mg/kg; for Body weight (g) Pre-dose: before dosing
Description: as §1
(§2) Tumor xenograft models of HepG2, LOVO, K562 and HL-60 cell lines were performed as the method described above.

[21] = system: LOVO xenografts; experiment: LOVO xenografts in nude mice; format: in vivo; conditions: LOVO xenograft nude mice; for Anti-tumor rate (%) / Body weight (g) Post-dose / Tumor weight: 1 mg/kg; for Body weight (g) Pre-dose: before dosing
Description: as §1, §2

[22] = system: K562 xenografts; experiment: K562 xenografts in nude mice; format: in vivo; conditions: K562 xenograft nude mice; for Anti-tumor rate (%) / Body weight (g) Post-dose / Tumor weight: 1 mg/kg; for Body weight (g) Pre-dose: before dosing
Description: as §1, §2

[23] = system: HL-60 xenografts; experiment: HL-60 xenografts in nude mice; format: in vivo; conditions: HL-60 xenograft nude mice; for Anti-tumor rate (%) / Body weight (g) Post-dose / Tumor weight: 1 mg/kg; for Body weight (g) Pre-dose: before dosing
Description: as §1, §2

[24] = system: human normal liver cells LO2; experiment: MTT cytotoxicity on normal cells, LO2; conditions: read-out: IC50, cytotoxicity on normal cell line; LO2, MTT assay
Description: (§5) Then, 100 μL of cells (cell concentration was 5×10^5/mL) were seeded into 96 wells plate. After 24 h incubation at 37° C. with 5% CO2, tested compounds were added (the control group without compound) for an additional 72 h incubation. After that, 30 μL of MTT [3-(4,5-Dimethylthiazol-2-yl)-2,5-diphenyltetrazolium bromide] solution (5 mg/mL) was added into each well and incubated for another 4 h at 37° C. and then the formazan crystals were solubilized with 100 μL DMSO. Finally, absorbance of each well was determined at 570 nm by a microplate reader (Thermo).
(§6) The standard curve was drew with compound concentrations as the abscissa and cell growth inhibition rates as the ordinate. The concentration required to inhibit cell growth by 50% (IC50) was calculated from survival curves.
(§7) Experimental method: In vitro cytotoxicities of vinca alkaloids, hydrazinolyzed vinca alkaloids and vinca alkaloid dipeptide derivatives on human normal liver cells LO2 and human umbilical vein endothelial cells HUVEC were detected according to the method of Example 2.

[25] = system: human umbilical vein endothelial cells HUVEC; experiment: MTT cytotoxicity on normal cells, HUVEC; conditions: read-out: IC50, cytotoxicity on normal cell line; HUVEC, MTT assay
Description: as §5, §6, §7

SMILES	IC50 [1] [nM]	IC50 [2] [nM]	IC50 [3] [nM]	IC50 [4] [nM]	IC50 [5] [nM]	IC50 [6] [nM]	IC50 [7] [nM]	IC50 [8] [nM]	IC50 [9] [nM]	IC50 [10] [nM]	IC50 [11] [nM]	IC50 [12] [nM]	IC50 [13] [nM]	IC50 [14] [nM]	IC50 [15] [nM]	IC50 [16] [nM]	LD50 (median lethal dose) [18] [mg/kg]	Anti-tumor rate (%) [19]	Body weight (g) Post-dose [19] [g]	Tumor weight [19] [g]	further results
CCC12C=CCN3CCC4(c5cc(C6(C(=O)OC)CC7CC(C(C)(F)F)CN(Cc8c6[nH]c6ccccc86)C7)c(OC)cc5N(C)C4C(O)(C(=O)NNC(=O)C4CCCN4C(=O)CNC(=O)OCc4ccccc4)C1O)C32 (stereo not shown) [BX-CCFN, Z-GP-NHNH-Vinflunine]	335 ± 7.31	320 ± 8.51	309 ± 5.78	299 ± 7.64	430 ± 10.1	606 ± 11.5	614 ± 9.29	430 ± 10.4	317 ± 31.3	289 ± 28.8	229 ± 6.6	528 ± 34.8	459 ± 13.5	726 ± 98.2	390 ± 15.7	604 ± 17.9	15	88.13** %	20.6 ± 1.6	0.31 ± 0.11	IC50 [17]: 908 ± 20.2 nM; Body weight (g) Pre-dose [19]: 20.2 ± 0.7 g; Anti-tumor rate (%) [20]: 88.24** %; Body weight (g) Post-dose [20]: 22.1 ± 1.2 g; Tumor weight [20]: 0.30 ± 0.17 g; Body weight (g) Pre-dose [20]: 21.9 ± 1.3 g; Anti-tumor rate (%) [21]: 83.63** %; Body weight (g) Post-dose [21]: 24.5 ± 1.5 g; Tumor weight [21]: 0.47 ± 0.31 g; Body weight (g) Pre-dose [21]: 23.6 ± 1.3 g; Anti-tumor rate (%) [22]: 66.08** %; Body weight (g) Post-dose [22]: 23.0 ± 0.8 g; Tumor weight [22]: 0.57 ± 0.13 g; Body weight (g) Pre-dose [22]: 22.9 ± 1.3 g; Anti-tumor rate (%) [23]: 70.68** %; Body weight (g) Post-dose [23]: 18.6 ± 1.4 g; Tumor weight [23]: 0.61 ± 0.35 g; Body weight (g) Pre-dose [23]: 18.7 ± 1.4 g; IC50 [24]: 301 ± 14.3 nM; IC50 [25]: 270 ± 7.7 nM
CCC1(O)CC2CN(CCc3c([nH]c4ccccc34)C(C(=O)OC)(c3cc4c(cc3OC)N(C)C3C(O)(C(=O)NNC(=O)C5CCCN5C(=O)CNC(=O)OCc5ccccc5)C(O)C5(CC)C=CCN6CCC43C65)C2)C1 (stereo not shown) [BX-CCJ, Z-GP-NHNH-Vinblastine]	62.1 ± 3.87	44.8 ± 8.15	52.7 ± 3.01	46.8 ± 1.17	56.8 ± 3.08	108 ± 4.23	64.2 ± 4.57	103 ± 8.87	71.1 ± 1.97	57.3 ± 2.07	11.7 ± 3.04	49.5 ± 4.53	59.8 ± 6.42	85.5 ± 9.57	179 ± 8.87	146 ± 5.47	10	92.34** %	21.2 ± 2.1	0.20 ± 0.12	Body weight (g) Pre-dose [19]: 19.8 ± 1.0 g; Anti-tumor rate (%) [20]: 86.67** %; Body weight (g) Post-dose [20]: 22.1 ± 1.3 g; Tumor weight [20]: 0.34 ± 0.21 g; Body weight (g) Pre-dose [20]: 22.0 ± 1.7 g; Anti-tumor rate (%) [21]: 85.02** %; Body weight (g) Post-dose [21]: 24.4 ± 1.6 g; Tumor weight [21]: 0.43 ± 0.38 g; Body weight (g) Pre-dose [21]: 23.8 ± 1.9 g; Anti-tumor rate (%) [22]: 76.79** %; Body weight (g) Post-dose [22]: 23.1 ± 1.4 g; Tumor weight [22]: 0.39 ± 0.27 g; Body weight (g) Pre-dose [22]: 22.3 ± 1.0 g; Anti-tumor rate (%) [23]: 81.29** %; Body weight (g) Post-dose [23]: 20.1 ± 1.0 g; Tumor weight [23]: 0.41 ± 0.19 g; Body weight (g) Pre-dose [23]: 18.8 ± 1.1 g; IC50 [24]: 96.3 ± 1.11 nM; IC50 [25]: 129 ± 1.34 nM
CCC1=CC2CN(C1)Cc1c([nH]c3ccccc13)C(C(=O)OC)(c1cc3c(cc1OC)N(C)C1C(O)(C(=O)NNC(=O)C4CCCN4C(=O)CNC(=O)OCc4ccccc4)C(O)C4(CC)C=CCN5CCC31C54)C2 (stereo not shown) [BX-CCRB, Z-GP-NHNH-Vinorelbine]	115 ± 5.23	123 ± 11.4	210 ± 5.78	167 ± 4.37	182 ± 2.36	238 ± 8.37	181 ± 8.1	244 ± 9.33	269.8 ± 2.03	219 ± 6.29	109 ± 4.66	120 ± 14.5	166 ± 15.6	208 ± 18.4	325 ± 11.7	437 ± 14.4	12	85.83** %	20.1 ± 0.9	0.37 ± 0.07	Body weight (g) Pre-dose [19]: 19.1 ± 1.7 g; Anti-tumor rate (%) [20]: 85.49** %; Body weight (g) Post-dose [20]: 22.6 ± 0.5 g; Tumor weight [20]: 0.37 ± 0.09 g; Body weight (g) Pre-dose [20]: 22.2 ± 1.5 g; Anti-tumor rate (%) [21]: 80.14** %; Body weight (g) Post-dose [21]: 24.1 ± 2.3 g; Tumor weight [21]: 0.57 ± 0.23 g; Body weight (g) Pre-dose [21]: 23.6 ± 1.2 g; Anti-tumor rate (%) [22]: 72.62** %; Body weight (g) Post-dose [22]: 23.4 ± 1.2 g; Tumor weight [22]: 0.46 ± 0.29 g; Body weight (g) Pre-dose [22]: 22.1 ± 0.5 g; Anti-tumor rate (%) [23]: 74.52** %; Body weight (g) Post-dose [23]: 19.2 ± 1.3 g; Tumor weight [23]: 0.53 ± 0.28 g; Body weight (g) Pre-dose [23]: 19.0 ± 1.2 g; IC50 [24]: 183 ± 5.51 nM; IC50 [25]: 167 ± 8.87 nM
